Test results reported in patent publication US20230381176A1, “A PHARMACEUTICAL COMPOSITION AND USE THEREOF FOR TREATMENT OF CANCER” (Ascentage Pharma (Suzhou) Co., Ltd., priority 2020, published 2023).

Assays:
[1] = system: PTK2 high ovarian PDX OV2423; experiment: PTK2 high ovarian PDX model OV2423, Compound 5 and carboplatin and/or paclitaxel; format: in vivo, mouse
Description: (§1) A subcutaneous xenograft tumor model of human tumor immunodeficient mice was established by cell inoculation: tumor cells in logarithmic growth phase were collected, counted, resuspended in 1×PBS, and the cell suspension concentration was adjusted to 2.5-5 ×10^7/mL. The tumor cells were inoculated subcutaneously in the right side of immunodeficient mice with a 1 mL syringe ([…]), 5-10×10^6/0.2 mL/mouse. All animal experiments were strictly in accordance with the specifications for the use and management of experimental animals in GenePharma Co., Ltd. and Suzhou Ascentage Pharma Co., Ltd. The calculation of relevant parameters refers to the Chinese NMPA “Guidelines for Non-Clinical Research Techniques of Cytotoxic Anti-tumor Drugs”.
(§2) Animal body weight and tumor size were measured twice weekly during the experiment. The state of the animal and the presence or absence of death were observed every day. The growth of tumor and the effects of treatment on normal behavior of animals were monitored routinely, specifically involving experimental animal activity, feeding and drinking, weight gain or loss, eyes, clothing hair and other abnormalities. The deaths and clinical symptoms observed during the experiment were recorded in the raw data. All operations for administration and measurement of mouse body weight and tumor volume were performed in a clean bench. According to the requirements of the experimental protocol, after the end of the last administration, plasma and tumor tissues were collected, weighed and photographed. The plasma and tumor samples were frozen at −80° C. for ready-to-use.
(§3) Tumor volume (TV) is calculated as: TV=a×b^2/2, wherein a and b represent the length and width of the tumor to be measured, respectively.
(§4) The relative tumor volume (RTV) is calculated as: RTV=Vt/V1, wherein V1 is the tumor volume at the start of grouping and administration, and Vt is the tumor volume measured on the t day after administration.
(§5) Change of body weight (%)=(measured body weight−body weight at the start of grouping)/body weight at the start of grouping×100%.
(§6) A dose of drug is considered to be severely toxic if the body weight of mouse is reduced by more than 20% or the number of drug-related deaths exceeds 20%.
(§7) According to the description by Clarke R., Issues in experimental design and endpoint analysis in the study of experimental cytotoxic agents in vivo in breast cancer and other models [J]. Breast Cancer Research & Treatment, 1997, 46(2-3): 255-278, synergy analysis was evaluated using the following formula: synergy factor=((A/C)×(B/C))/(AB/C); A=RTV value of drug A alone group; B=RTV value of drug B alone group; C=RTV value of the solvent control group, and AB=RTV value of the A and B combination group.
(§8) Use of mRECIST (Gao et al., 2015) measured tumor responses included stable disease (SD), partial tumor regression (PR), and complete regression (CR), determined by comparing tumor volume change at day t to its baseline: tumor volume change (%)=(Vt−V1)/V1. The BestResponse was the minimum value of tumor volume change (%) for t≥10. For each time t, the average of tumor volume changes from t=1 to t was also calculated. BestAvgResponse was defined as the minimum value of this average for t≥10. The criteria for response (mRECIST) were adapted from RECIST criteria (Gao et al., 2015; Therasse et al., 2000) and defined as follows: mCR, BestResponse<−95% and BestAvg Response<−40%; mPR, BestResponse<−50% and BestAvgResponse<−20%; mSD, BestResponse<35% and BestAvgResponse<30%; mPD, not otherwise categorized. SD, PR, and CR were considered responders and used to calculate response rate (%). […] Body weight of animals were monitored simultaneously. The change in body weight was calculated based on the animal weight of the first day of dosing (day 1). Tumor volume and changes in body weight (%) were represented as the mean±standard error of the mean (SEM).

ovarian PDX OV1658 = experiment: Ovarian PDX model OV1658, Compound 5 and carboplatin and/or paclitaxel; format: in vivo, mouse
Description: as §1, §2, §3, §4, §5, §6, §7, §8

[2] = system: PTK2 high ovarian PDX OV1385; experiment: PTK2 high ovarian PDX model OV1385, Compound 5 and carboplatin and/or paclitaxel; format: in vivo, mouse
Description: as §1, §2, §3, §4, §5, §6, §7, §8

[3] = system: PTK2 high ovarian PDX OV2018; experiment: PTK2 high ovarian PDX model OV2018, Compound 5 and paclitaxel; format: in vivo, mouse
Description: as §1, §2, §3, §4, §5, §6, §7, §8

[4] = system: OVCAR3 s.c. ovarian xenograft; format: in vivo
Description: as §1, §2, §3, §4, §5, §6, §7, §8

[5] = system: OVCAR3 s.c. ovarian xenograft; experiment: OVCAR3 s.c. ovarian xenograft model, overcoming resistance to paclitaxel / paclitaxel and carboplatin; format: in vivo, mouse
Description: as §1
Animal body weight and tumor size were measured twice weekly during the experiment. The state of the animal and the presence or absence of death were observed every day. The growth of tumor and the effects of treatment on normal behavior of animals were monitored routinely, specifically involving experimental animal activity, feeding and drinking, weight gain or loss, eyes, clothing hair and other abnormalities. The deaths and clinical symptoms observed during the experiment were recorded in the raw data. […] The plasma and tumor samples were frozen at −80° C. for ready-to-use.
as §3, §4
Change of body weight (%)=(measured body weight−body weight at the start of grouping)/body weight at the start of grouping×100%. […]
Use of mRECIST (Gao et al., 2015) measured tumor responses included stable disease (SD), partial tumor regression (PR), and complete regression (CR), determined by comparing tumor volume change at day t to its baseline: tumor volume change (%)=(Vt−V1)/V1. […]

A549 NSCLC xenograft = experiment: s.c. A549 NSCLC lung cancer model, Compound 5 and panobinostat; format: in vivo, mouse; conditions: Compound 5 100 mg/kg orally once per day, panobinostat 3 mg/kg i.p. 5 days then 2 days break, 14 days
[6] = Compound 5 50 mg/kg orally once per day, carboplatin 30 mg/kg i.p. once a week, paclitaxel 10 mg/kg i.v. once a week, 28 days
[7] = Compound 5 50 mg/kg orally once per day, carboplatin 30 mg/kg i.p. once a week, paclitaxel 10 mg/kg i.v. once a week, 19 days
[8] = best response, animals per class
[9] = Compound 5 50 mg/kg orally once per day, carboplatin 30 mg/kg i.p. once a week, paclitaxel 10 mg/kg i.v. once a week, 35 days
[10] = Compound 5 50 mg/kg orally once per day, paclitaxel 10 mg/kg i.v. once a week, 35 days
[11] = Compound 5 100 mg/kg orally once per day, paclitaxel 10 mg/kg i.v. once a week, carboplatin 30 mg/kg i.v. once a week

CC(=O)O[C@H]1C(=O)[C@@]2(C)[C@H]([C@H](OC(=O)c3ccccc3)[C@]3(O)C[C@H](OC(=O)[C@H](O)[C@@H](NC(=O)c4ccccc4)c4ccccc4)C(C)=C1C3(C)C)[C@]1(OC(C)=O)CO[C@@H]1C[C@@H]2O [Paclitaxel, paclitaxel]
RTV on Day 28 after administration (mean ± standard error) [1, 6]: 9.54 ± 1.73 | T/C on Day 28 after administration (%) [1, 6]: 50.80% | mRECIST ([1]; animals per class): 2/2 PD | antitumor activity (conclusion in words) ([1]; mouse, in vivo): moderate antitumor activity | RTV on Day 19 after administration (mean ± standard error) (ovarian PDX OV1658; [7]): 11.79 | T/C on Day 19 after administration (%) (ovarian PDX OV1658; [7]): 86.31% | mRECIST on Day 19 after administration (ovarian PDX OV1658; Day 19, animals per class): 2/2 PD | mRECIST (ovarian PDX OV1658; [8]): 2/2 PD | antitumor activity (conclusion in words) (ovarian PDX OV1658; mouse, in vivo): minor antitumor activity | RTV on Day 35 after administration (mean ± standard error) [2, 9]: 1.80 ± 0.75 | T/C on Day 35 after administration (%) [2, 9]: 44.55% | mRECIST on Day 35 after administration ([2]; Day 35, animals per class): 2/2 PD | mRECIST [2, 8]: 2/2 PD | antitumor activity (conclusion in words) ([2]; mouse, in vivo): moderate antitumor activity | RTV on Day 35 after administration (mean ± standard error) [3, 10]: 2.87 ± 0.24 | T/C on Day 35 after administration (%) [3, 10]: 118.60% | mRECIST on Day 35 after administration ([3]; Day 35, animals per class): 2/2 PD | mRECIST [3, 8]: 2/2 PD | antitumor activity (conclusion in words) ([3]; mouse, in vivo): no antitumor activity | RTV on Day 35 after administration (mean ± standard error) [4, 11]: 8.02 ± 1.30 | T/C on Day 35 after administration (%) [4, 11]: 52.14% | mRECIST ([4]; animals per class): 5/5 PD | antitumor activity (conclusion in words) ([4]; mouse, in vivo): moderate antitumor activity | Overall regression rate (ORR), % ([4]; proportion of animals with CR or PR): 0% | Disease control rate (DCR), % ([4]; proportion of animals with CR, PR or SD): 0% | DCR (%) ([5]; mouse, in vivo): 20% | ORR (%) ([5]; mouse, in vivo): 0% | RTV on Day 56 after administration (mean ± standard error) ([5]; paclitaxel 10 mg/kg i.v. once a week, carboplatin 30 mg/kg i.v. once a week, Compound 5 100 mg/kg orally once per day from Day 15): 5.19 ± 0.62

Cc1[nH]c2ccccc2c1CCNCc1ccc(/C=C/C(=O)NO)cc1 [panobinostat, reference compound]
RTV on Day 14 after administration (mean ± standard error) (A549 NSCLC xenograft): 2.06 ± 0.29 | T/C on Day 14 after administration (%) (A549 NSCLC xenograft): 57.54%
